Test results taken from article PMC5104425, “A Novel Selective Inhibitor of Delta-5 Desaturase Lowers Insulin Resistance and Reduces Body Weight in Diet-Induced Obese C57BL/6J Mice” (PLoS ONE, 2016).

Experiments:
human D9D = molecular target: T1, human D9D (Homo sapiens, UniProt O00767); experiment: In vitro cell-based assay for desaturase activity (HepG2), D9D
T1 construct: endogenous in cells; host or cells: HepG2
T1 sequence (O00767 1-359): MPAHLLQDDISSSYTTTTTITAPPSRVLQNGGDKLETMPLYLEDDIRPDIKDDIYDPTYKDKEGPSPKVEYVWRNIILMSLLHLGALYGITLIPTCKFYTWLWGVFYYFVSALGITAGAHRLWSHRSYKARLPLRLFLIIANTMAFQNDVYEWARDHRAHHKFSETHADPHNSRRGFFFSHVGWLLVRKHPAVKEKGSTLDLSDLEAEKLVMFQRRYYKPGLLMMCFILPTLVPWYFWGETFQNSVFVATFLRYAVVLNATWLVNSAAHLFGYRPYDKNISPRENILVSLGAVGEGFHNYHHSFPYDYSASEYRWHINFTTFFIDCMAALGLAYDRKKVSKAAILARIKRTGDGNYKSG
Protocol: HepG2 cells were seeded in 96-well cell culture plates at 100 000 cells/well and incubated overnight in DMEM supplemented with 10% fetal bovine serum, 100 U/mL penicillin, and 100 μg/mL streptomycin in 5% CO2 at 37°C. The cells were washed twice with 200 μL of PBS and incubated with the test compounds in DMEM with 0.1% fatty acid free BSA for 30 min. Then, 0.1 μCi/well of [^14C]-labeled DGLA, linoleic acid, and stearic acid (ARC, St. Louis, MO) were added for each desaturase assay. After incubation for 3 h at 37°C, the cells were washed 3 times with 200 μL of PBS to remove [^14C]-labeled substrates in the medium and 0.63 N of NaOH was added to saponify fatty acids. Radioactive substrates and products were extracted, separated, and analyzed using the method as described above.

D5D = experiment: Blood fatty acids (PD markers AA, DGLA, EPA, DHA) after 6-week treatment in DIO mice; format: in vivo, C57BL/6J mice; conditions: compound-326 0.1, 1, 10 mg/kg, 6 weeks
Protocol: (§1) Fatty acids were extracted from blood and tissues by adding hexane-isopropanol-butylated hydroxytoluene (60:40:0.01, v/v/w). Samples were vortexed for 30 min. The hexane phase was removed and evaporated to dryness under nitrogen stream and vacuum. Dried samples were dissolved in methanol and analyzed by HPLC.
(§2) Mice were fed a high-fat diet (HFD) that has 60% kcal from fat and contains 0.09% (w/w) AA (D12492; Research diets, Inc., see S1 Table for fatty acid profile) from 5 weeks of age, and they were divided into 5 groups (7 animals per group) at 11 weeks of age based on BW and daily food intake. In this experiment, 30 mg/kg sibutramine, a […], was used as a positive control for anti-obesity effects. Mice were orally administered compound-326 at doses of 0.1, 1, and 10 mg/kg, sibutramine at a dose of 30 mg/kg, or vehicle for 6 weeks. After 6 weeks, blood concentrations of DGLA and AA under non-fasting condition were evaluated as pharmacodynamics (PD) markers, and oral glucose tolerance test (OGTT) was performed.

DIO mice [1] = experiment: 6-week treatment of HFD (D12079B)-fed DIO mice: BW and blood/tissue fatty acids; format: in vivo, C57BL/6J mice
Protocol: as §1
Mice fed a HFD that has 41% kcal from fat and contains no AA (D12079B; Research diets, Inc.) from 5 weeks of age were divided into 2 groups at the age of 8 weeks (8 animals per group), and were administered 10 mg/kg compound-326 or vehicle for 6 weeks. After the treatment period, mice were sacrificed and epididymal and subcutaneous fats were harvested for mRNA analysis. Nine animals maintained on a standard chow (CE2, CLEA Japan, Osaka) were used as control.

DIO mice [2] = experiment: Indirect calorimetry test (energy expenditure, RER) in established DIO mice; format: in vivo, C57BL/6J mice; conditions: 10 mg/kg
Protocol: To evaluate the effect on daily EE, DIO mice fed a HFD that has 41% kcal from fat and contains no AA (D12079B; Research diets, Inc., see S1 Table for fatty acids composition) for 50 weeks were used. At 55 weeks of age, DIO mice were divided into two weight-matched groups (7 animals per group) and treated with vehicle or 10 mg/kg compound-326 for 11 weeks. […] Indirect calorimetry test was performed on day1, 8, 15, 21, and 56 during the study. Daily EE was analyzed using ANCOVA with body mass as covariate. After the treatment period, mice were sacrificed and fat tissues were harvested to evaluate the weights.
Energy metabolism was evaluated using an Oxymax indirect calorimetry system (Columbus Instruments, Columbus, OH). Mice were individually housed in the chamber with a 12-h light/dark cycle. VO2 and VCO2 rates were determined with the following Oxymax system settings: air flow, 0.6 L/min; sample flow, 0.5 l/min; settling time, 10 min; and measuring time, 1 min. The system was calibrated against a standard gas mixture to measure O2 consumed (VO2, mL/kg/h) and CO2 generated (VCO2, mL/kg/h). Metabolic rate (VO2) and respiratory exchange ratio (RER; ratio of VCO2/VO2) were evaluated over a 24-h period. Energy expenditure was calculated as the product of the calorific value of oxygen (3.815+1.232×RER) and the volume of O2 consumed.

DIO mice [3] = experiment: Oral glucose tolerance test and HOMA-IR after 6-week treatment in DIO mice; format: in vivo, C57BL/6J mice
Protocol: as §2
On the last day of the experiment, mice were given an oral glucose load (2 g/kg) after overnight fasting. Blood samples were collected at specified time points of 0 (pre-glucose/fasting glucose levels), 10, 30, 60, and 120 min post glucose load for the determination of plasma glucose as well as insulin levels. Plasma glucose was enzymatically measured with auto-analyzer 7180 (Hitachi High-Technologies Corporation, Tokyo, Japan). Plasma insulin was measured with mouse insulin ELISA kit (Shibayagi, Gunma, Japan). The total area under the glucose curve was determined from time 0 to 120 min (AUC0–120 min) after glucose administration. Homeostasis model assessment-insulin […] (HOMA-IR) was calculated using the formula: [(fasted PG: mg/dL)×(fasted insulin; μU/mL)[…]/405] [28].

[4] = 10 mg/kg, after 6-week treatment

## O=C1Cc2c(nc(OCC(F)(F)C(F)(F)F)n(-c3ccc(OCC(F)(F)F)cc3)c2=O)N1 [Compound-326, 2-(2,2,3,3,3-Pentafluoropropoxy)-3-[4-(2,2,2-trifluoroethoxy)phenyl]-5,7-dihydro-3H-pyrrolo[2,3-d]pyrimidine-4,6-dione]
Human D9D
  IC50: > 10 µM
D5D
  blood AA to DGLA ratio: decreased significantly
D5D; dose dependent
  blood level of DHA: decreased
  blood level of EPA: decreased
D5D; dose-dependent, non-fasting
  blood AA: decreased
  blood DGLA: increased
DIO mice [1]; 10 mg/kg p.o., 6 weeks
  AA to DGLA ratio in epididymal fat: significantly decreased
  AA to DGLA ratio in the blood: decrease
  AA to DGLA ratio in the liver: significantly decreased
  n-3 PUFA (EPA and DHA) in blood, liver, and adipose tissue: significantly decreased
DIO mice [1]; 10 mg/kg p.o., 6 weeks, vs vehicle
  BW: significantly decreased
DIO mice [1]; [4]
  AA in the blood as well as liver: decrease
  DGLA in the blood as well as liver: increase
DIO mice [2]; day 15, independent of decreased BW
  daily EE relative to body mass: increased
DIO mice [2]; days 1 and 8, vs vehicle
  daily EE (kcal/day) plotted against body mass: no difference
DIO mice [2]; days 21 and 56
  difference in daily EE lines vs vehicle: became more apparent
DIO mice [2]; relative to vehicle through the study, did not reach significance
  RER: lower
DIO mice [3]; compound-326 0.1, 1, 10 mg/kg, after 6-week treatment, dose-dependent
  HOMA-IR: decreased
DIO mice [3]; compound-326, after 6-week treatment
  insulin levels (OGTT): no change
DIO mice [3]; observed from dose of 1 mg/kg without a significant decrease in BW
  glucose tolerability and insulin sensitivity: improvement
